Data from patent US12357632B2, “Methods of treating cholangiocarcinoma” (QED Therapeutics, Inc., priority 2019, dated 2025).
“Also recorded” adds a separate entry of the source.

How the values were obtained:
[1] = test system: advanced or metastatic cholangiocarcinoma with FGFR genetic alterations; assay: Phase II study of oral BGJ398 in advanced or metastatic cholangiocarcinoma, Patient 5010004 (RECIST v1.1); format: in vivo, human
Protocol: This is a multi-center, open label, single arm phase II study evaluating BGJ398 anti-tumor activity in advanced or metastatic cholangiocarcinoma patients with FGFR genetic alterations. 125 mg of oral, monotherapy BGJ398 is administered once daily for the first 3 weeks (21 days) of each 28-day cycle. The starting dose of 125 mg may be reduced to 100 mg, 75 mg, or 50 mg. The treatment period begins on Cycle 1, Day 1, and continues until disease progression, unacceptable toxicity, withdrawal of informed consent, or death. Patients are evaluated for tumor response radiographically every 8 weeks until disease progression or discontinuation from study using RECIST v1.1 criteria.
Adult patients with histologically or cytologically confirmed advanced or metastatic cholangiocarcinoma with FGFR2 gene fusions or translocations or other FGFR genetic alteration who have evidence of radiologic progression following a cisplatin- and gemcitabine-containing regimen for advanced disease or a gemcitabine-containing regimen for those who are considered intolerant to cisplatin are enrolled. Up to approximately 160 adult patients over age 18, both male and female are enrolled. Three cohorts of patients comprise the study population: • Cohort 1: ˜120 patients, 108 with FGFR2 gene fusions or translocations and 12 with other FGFR genetic alterations. • Cohort 2: ˜20 patients with FGFR genetic alterations other than FGFR2 gene fusions or translocations. • Cohort 3: Up to ˜20 patients with FGFR2 gene fusions or translocations who have received a prior FGFR inhibitor. Main Inclusion Criteria
Tumor response according to RECIST v1.1, and survival.
During treatment with infigratinib, the patient's response was determined by follow-up assessments conducted by a local investigator per RECIST v1.1.

[2] = Tolerability (body weight, clinical observations) in UREx-MR2057PD-AR xenograft study; format: in vivo, Mouse (Mus musculus)
Protocol: All animals were weighed at the same time as tumor size measurement. A Relative Body Weight loss (RBW loss) was considered as adverse effect of the treatment.
Mice were observed every day for physical appearance, behavior and clinical changes.
Relative Body Weight (RBW) is calculated for each measurement by dividing the body weight by the body weight at the start of treatment.
Individual Body weight loss percent (% BWL)=100−(BWX/BW0×100), where BWX is the BW at any day during the treatment and BW0 is the BW on the day of inclusion.
Mean Body weight loss percent (% BWL)=100−(mean BWX/mean BW0×100), where BWX is the mean BW at any day during the treatment and BW0 is the mean BW on the day of inclusion.

[3] = infigratinib 50 mg/kg PO qdx21, on D21

For `CCN1CCN(c2ccc(Nc3cc(N(C)C(=O)Nc4c(Cl)c(OC)cc(OC)c4Cl)ncn3)cc2)CC1` [Infigratinib, 3-(2,6-dichloro-3,5-dimethoxyphenyl)-1-{6-[4-(4-ethyl-1-piperazin-1-yl)phenylamino]-pyrimidinyl-4-yl}-1-methylurea], which “New Lesion” value ([1]; Patient 5010004, Study Day 54) is on record?
The value was “No”.

And the “Non-Target Lesion Response” value ([1]; Patient 5010004, Study Day 54)?
Its value is “Non-CR^1/Non-PD^2”.

And the “Overall Response” value ([1]; Patient 5010004, Study Day 54)?
Its value is “Stable disease”.

What about the “Target Lesion % Change from Baseline” value ([1]; Patient 5010004, Study Day 54) of the same compound?
Its value is 18.33%.

And the “New Lesion” value ([1]; Patient 5010004, Study Day 83)?
The value was “No”.

What about the “Non-Target Lesion Response” value ([1]; Patient 5010004, Study Day 83) of the same compound?
Its value is “Non-CR/Non-PD”.

And the “Overall Response” value ([1]; Patient 5010004, Study Day 83)?
The value was “Stable disease”.

And the “Target Lesion % Change from Baseline” value ([1]; Patient 5010004, Study Day 83)?
The value was 16.33%.

And the “New Lesion” value ([1]; Patient 5010004, Study Day 110)?
The value was “No”.

What about the “Non-Target Lesion Response” value ([1]; Patient 5010004, Study Day 110) of the same compound?
The value was “Non-CR/Non-PD”.

And the “Overall Response” value ([1]; Patient 5010004, Study Day 110)?
The value was “Stable disease”.

What about the “Target Lesion % Change from Baseline” value ([1]; Patient 5010004, Study Day 110) of the same compound?
Its value is 16.33%.

And the “New Lesion” value ([1]; Patient 5010004, Study Day 153)?
Its value is “No”.

And the “Non-Target Lesion Response” value ([1]; Patient 5010004, Study Day 153)?
Its value is “Progressive”.

And the “Overall Response” value ([1]; Patient 5010004, Study Day 153)?
Its value is “Progressive”.

What about the “Target Lesion % Change from Baseline” value ([1]; Patient 5010004, Study Day 153) of the same compound?
The value was 31.63%.

And the “duration of stable disease” value ([1]; Patient 5010004, first 3 follow-up assessments, local investigator, RECIST v1.1)?
The value was “at least 4 months”.

And the “time to discontinuation for progressive disease” value ([1]; Patient 5010004, study treatment)?
The value was “approximately 5 months”.

What about the clinical observations ([2]; infigratinib 30 mg/kg PO qdx21) of the same compound?
The clinical observations was “All mice had hollow at the level of sternum from D15 to D21”.

And the “mean body weight loss” value ([2]; infigratinib 30 mg/kg PO qdx21)?
Its value is “no mean body weight loss”.

And the “tolerability” value ([2]; infigratinib 30 mg/kg PO qdx21)?
The value was “well tolerated”.

What about the “maximum individual body weight loss” value ([2]; infigratinib 30 mg/kg PO qdx21, on D3) of the same compound?
Its value is 3.5%.

And the clinical observations ([2]; infigratinib 50 mg/kg PO qdx21)?
The clinical observations was “All mice had hollow at the level of sternum from D15 to D21”.

And the “maximum individual body weight loss” value [2, 3]?
The value was 17.8%.

What about the “mean body weight loss” value [2, 3] of the same compound?
Its value is 6.6%.

And the “tolerability” value ([2]; infigratinib 50 mg/kg PO qdx21, listed as infigratinib)?
The value was “tolerated; also recorded: slight but statistically significant and progressive BWL”.
